For this assay, the target named is T1, HPK1 (Homo sapiens, UniProt Q92918).
T1 construct: A HiBiT tag was introduced by CRISPR on the N terminus of HPK1 in Jurkat cells; host or cells: Jurkat cells (ATCC TIB-152), monoclonal line with CRISPR knock-in of HiBiT at the endogenous HPK1 locus
The assay can be described thus: HPK1 Cellular HiBit Degradation Assay. The assay is classed as cell-based. Conditions: HiBiT HPK1 Jurkat cells, 24 hrs; for DC50: concentration at which 50% of HPK1 was remaining, read-out: DC50 Category; for Dmax: Jurkat, read-out: Dmax Category. In a few lines: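 HPK1 levels are read by HiBiT luminescence after 24 h exposure of HiBiT-knock-in Jurkat cells to compound at 10 uM–0.1 nM final (11 points). Relative to DMSO (100%), DC50 is the concentration leaving 50% HPK1 from a variable-slope fit, and Dmax is 100 minus minimum remaining. Viability checked in-plate.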

The mark [1] stands for this setting: maximum degradation vs DMSO vehicle control.

Experimental findings from US12091426B2, “Bifunctional degraders of hematopoietic progenitor kinase and therapeutic uses thereof” (Nurix Therapeutics, Inc., priority 2021, dated 2024) are described below.

As a reminder, the DC50 is the concentration at which degradation of the target reaches its halfway point. By Dmax is commonly meant the largest share of the target that was removed.

Molecules are shown by their SMILES.

T1 sequence (Q92918 whole entry): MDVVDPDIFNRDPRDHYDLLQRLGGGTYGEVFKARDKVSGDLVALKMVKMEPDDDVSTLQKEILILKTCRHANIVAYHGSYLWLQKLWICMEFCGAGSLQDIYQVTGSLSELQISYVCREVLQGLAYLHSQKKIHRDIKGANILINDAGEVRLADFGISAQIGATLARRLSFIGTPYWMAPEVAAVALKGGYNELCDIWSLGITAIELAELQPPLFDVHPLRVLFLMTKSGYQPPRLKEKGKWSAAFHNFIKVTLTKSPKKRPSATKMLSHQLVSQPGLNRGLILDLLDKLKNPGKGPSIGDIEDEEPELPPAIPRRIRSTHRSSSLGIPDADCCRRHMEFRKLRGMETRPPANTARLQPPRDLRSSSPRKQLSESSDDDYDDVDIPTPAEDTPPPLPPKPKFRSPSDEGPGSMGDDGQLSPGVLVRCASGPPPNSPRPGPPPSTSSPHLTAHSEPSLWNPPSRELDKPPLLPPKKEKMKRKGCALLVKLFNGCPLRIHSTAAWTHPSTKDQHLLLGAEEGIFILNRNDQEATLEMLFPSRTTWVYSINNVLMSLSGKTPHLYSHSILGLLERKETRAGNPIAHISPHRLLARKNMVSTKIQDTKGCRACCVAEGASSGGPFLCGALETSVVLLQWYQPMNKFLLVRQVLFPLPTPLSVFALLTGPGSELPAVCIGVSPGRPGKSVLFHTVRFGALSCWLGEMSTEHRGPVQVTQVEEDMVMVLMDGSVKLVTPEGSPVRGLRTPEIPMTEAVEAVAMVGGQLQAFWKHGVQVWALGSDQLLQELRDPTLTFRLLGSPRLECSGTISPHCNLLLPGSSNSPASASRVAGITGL

As to `CC(C)Oc1nc(-c2ccc3c(c2)N([C@H]2C[C@@H](N4CCCCC4)C2)C(=O)C32CCN(C(=O)C3(C)CCN(C(=O)C4CCN(c5ccc(C6CCC(=O)NC6=O)cn5)CC4)CC3)CC2)cc2ncn(C(C)C)c12` (stereo partly drawn) [Example 169, 3-(6-{4-[4-methyl-4-({2-oxo-6-[3-(propan-2-yl)-4-(propan-2-yloxy)-3H-imidazo[4,5-c]pyridin-6-yl]-1-[(1S,3S)-3-(piperidin-1-yl)cyclobutyl]-1,2-dihydrospiro[indole-3,4′-piperidin]-1′-yl}carbonyl)piperidine-1-carbonyl]piperidin-1-yl}pyridin-3-yl)piperidine-2,6-dione], the DC50 is less than 100 nM. The Dmax under setting [1] was more than 85%.
As for `CC(C)n1cnc2cc(-c3ccc4c(c3)N([C@H]3C[C@@H](N5CCCCC5)C3)C(=O)C43CCN(C(=O)C4CCN(C(=O)C5CCN(c6ccc(C7CCC(=O)NC7=O)cn6)CC5)CC4)CC3)nc(NC3CC3)c21` (stereo partly drawn) [Example 73, 3-(6-(4-(4-(6-(4-(cyclopropylamino)-3-isopropyl-3H-imidazo[4,5-c]pyridin-6-yl)-2-oxo-1-((1S,3S)-3-(piperidin-1-yl)cyclobutyl)spiro[indoline-3,4′-piperidine]-1′-carbonyl)piperidine-1-carbonyl)piperidin-1-yl)pyridin-3-yl)piperidine-2,6-dione], the DC50 was 100 to 500 nM. The Dmax under setting [1] lay in the range of 70 to 85%.
On to `CC(C)n1cnc2cc(-c3ccc4c(c3)N([C@H]3C[C@@H](N5CCCCC5)C3)C(=O)C43CCN(C(=O)[C@H]4CC[C@@H](C(=O)N5CCC(Nc6ccc(C7CCC(=O)NC7=O)cn6)CC5)CC4)CC3)nc(NC3CC3)c21` (mixture of isomers) [Example 29, (3RS)-3-[6-({1-[(1S,4S)-4-({6-[4-(cyclopropylamino)-3-(propan-2-yl)-3H-imidazo[4,5-c]pyridin-6-yl]-2-oxo-1-[(1S,3S)-3-(piperidin-1-yl)cyclobutyl]-1,2-dihydrospiro[indole-3,4′-piperidin]-1′-yl}carbonyl)cyclohexanecarbonyl]piperidin-4-yl}amino)pyridin-3-yl]piperidine-2,6-dione], for which the DC50 is less than 100 nM. In addition, the Dmax under setting [1] was 50 to 70%.
On to `CC(C)n1cnc2cc(-c3ccc4c(c3)N([C@H]3C[C@@H](N5CCCCC5)C3)C(=O)C43CCN(C(=O)C4(C(F)(F)F)CCN(C(=O)C5CCN(c6ccc(C7CCC(=O)NC7=O)cn6)CC5)CC4)CC3)nc(NC3CC3)c21` (mixture of isomers) [Example 275, (3RS)-3-(6-{4-[4-({6-[4-(cyclopropylamino)-3-(propan-2-yl)-3H-imidazo[4,5-c]pyridin-6-yl]-2-oxo-1-[(1S,3S)-3-(piperidin-1-yl)cyclobutyl]-1,2-dihydrospiro[indole-3,4′-piperidin]-1′-yl}carbonyl)-4-(trifluoromethyl)piperidine-1-carbonyl]piperidin-1-yl}pyridin-3-yl)piperidine-2,6-dione], for which the DC50 was in the range of 100 to 500 nM. For the same compound, the Dmax under setting [1] is more than 85%.
In the same order, the values of `CC(C)n1cnc2cc(-c3ccc4c(c3)N([C@H]3C[C@@H](N5CCCCC5)C3)C(=O)C43CCN(C(=O)C4(C)CCN(C(=O)C5CCN(c6ccc(C7CCC(=O)NC7=O)cn6)CC5)CC4)CC3)nc(NC3CC3)c21` (mixture of isomers) [Example 113, (3RS)-3-(6-{4-[4-({6-[4-(cyclopropylamino)-3-(propan-2-yl)-3H-imidazo[4,5-c]pyridin-6-yl]-2-oxo-1-[(1S,3S)-3-(piperidin-1-yl)cyclobutyl]-1,2-dihydrospiro[indole-3,4′-piperidin]-1′-yl}carbonyl)-4-methylpiperidine-1-carbonyl]piperidin-1-yl}pyridin-3-yl)piperidine-2,6-dione] are less than 100 nM and 70 to 85%.
The corresponding values for `CC(C)n1cnc2cc(-c3ccc4c(c3)N([C@H]3C[C@@H](N5CCCCC5)C3)C(=O)C43CCN(C(=O)c4ccc(C(=O)N5CCC(N(C)c6ccc(C7CCC(=O)NC7=O)cn6)CC5)cc4)CC3)nc(Nc3ccccc3F)c21` (mixture of isomers) [Example 140, (3RS)-3-{6-[(1-{4-[(6-{4-[(2-fluorophenyl)amino]-3-(propan-2-yl)-3H-imidazo[4,5-c]pyridin-6-yl}-2-oxo-1-[(1S,3S)-3-(piperidin-1-yl)cyclobutyl]-1,2-dihydrospiro[indole-3,4′-piperidin]-1′-yl)carbonyl]benzoyl}piperidin-4-yl)(methyl)amino]pyridin-3-yl}piperidine-2,6-dione] are 500 to 1000 nM and 50 to 70%.
`CC(C)n1cnc2cc(-c3ccc4c(c3)N([C@H]3C[C@@H](N5CCCCC5)C3)C(=O)C43CCN(C(=O)C4(C)CCN(C(=O)C5CCN(c6ccc([C@@H]7CCC(=O)NC7=O)cn6)CC5)CC4)CC3)nc(OC3CCOCC3)c21` [Example 165, 3-(6-{4-[4-methyl-4-({6-[4-(oxan-4-yloxy)-3-(propan-2-yl)-3H-imidazo[4,5-c]pyridin-6-yl]-2-oxo-1-[(1S,3S)-3-(piperidin-1-yl)cyclobutyl]-1,2-dihydrospiro[indole-3,4′-piperidin]-1′-yl}carbonyl)piperidine-1-carbonyl]piperidin-1-yl}pyridin-3-yl)piperidine-2,6-dione]: the DC50 is less than 100 nM. For the same compound, the Dmax under setting [1] lay within 70 to 85%.
Consider `Cc1cc(N2CCC(C(=O)N3CCC(C)(C(=O)N4CCC5(CC4)C(=O)N([C@H]4C[C@@H](N6CCCCC6)C4)c4cc(-c6cc7ncn(C(C)C)c7c(NC7CC7)n6)ccc45)CC3)CC2)ccc1C1CCC(=O)NC1=O` (mixture of isomers) [Example 227, (3RS)-3-(4-{4-[4-({6-[4-(cyclopropylamino)-3-(propan-2-yl)-3H-imidazo[4,5-c]pyridin-6-yl]-2-oxo-1-[(1S,3S)-3-(piperidin-1-yl)cyclobutyl]-1,2-dihydrospiro[indole-3,4′-piperidin]-1′-yl}carbonyl)-4-methylpiperidine-1-carbonyl]piperidin-1-yl}-2-methylphenyl)piperidine-2,6-dione], for which the DC50 was 100 to 500 nM. Further, the Dmax under setting [1] was in the range of 70 to 85%.
Consider `CC(C)n1cnc2cc(-c3ccc4c(c3)N([C@H]3C[C@@H](N5CCCCC5)C3)C(=O)C43CCN(C(=O)c4ccc(C(=O)NC5CCN(c6ccc7c(c6)C(=O)N(C6CCC(=O)NC6=O)C7=O)CC5)cc4)CC3)nc(NC3CC3)c21` (mixture of isomers) [Example 44], for which the DC50 lay within 500 to 1000 nM. The “Dmax Category” value under setting [1] is listed as “B (B: >70%-<85%)”.
Take `CC(C)n1cnc2cc(-c3ccc4c(c3)N([C@H]3C[C@@H](N5CCCCC5)C3)C(=O)C43CCN(C(=O)C4C5CC4CN(C(=O)C4CCN(c6ccc(C7CCC(=O)NC7=O)cn6)CC4)C5)CC3)nc(NC3CC3)c21` (mixture of isomers) [Example 282, (3RS)-3-(6-{4-[6-({6-[4-(cyclopropylamino)-3-(propan-2-yl)-3H-imidazo[4,5-c]pyridin-6-yl]-2-oxo-1-[(1S,3S)-3-(piperidin-1-yl)cyclobutyl]-1,2-dihydrospiro[indole-3,4′-piperidin]-1′-yl}carbonyl)-3-azabicyclo[3.1.1]heptane-3-carbonyl]piperidin-1-yl}pyridin-3-yl)piperidine-2,6-dione]: the DC50 is less than 100 nM. In addition, under setting [1], the Dmax was in the range of 70 to 85%.
With `CC(C)n1cnc2cc(-c3ccc4c(c3)N([C@H]3C[C@@H](N5CCCCC5)C3)C(=O)C43CCN(C(=O)C4(C)CCN(C(=O)C5CCN(c6ccc(N7CCC(=O)NC7=O)cc6)CC5)CC4)CC3)nc(NC3CC3)c21` [Example 211, 1-(4-{4-[4-({6-[4-(cyclopropylamino)-3-(propan-2-yl)-3H-imidazo[4,5-c]pyridin-6-yl]-2-oxo-1-[(1S,3S)-3-(piperidin-1-yl)cyclobutyl]-1,2-dihydrospiro[indole-3,4′-piperidin]-1′-yl}carbonyl)-4-methylpiperidine-1-carbonyl]piperidin-1-yl}phenyl)-1,3-diazinane-2,4-dione], the 50% degradation concentration (DC50) is less than 100 nM. Moreover, the Dmax under setting [1] fell in the range of 70 to 85%.
For `CC(C)n1cnc2cc(-c3ccc4c(c3)N([C@H]3C[C@@H](N5CCCCC5)C3)C(=O)C43CCN(C(=O)c4ccc(CN5CCN(C(=O)C6CCN(c7ccc(C8CCC(=O)NC8=O)cn7)CC6)CC5)cc4)CC3)nc(NC3CC3)c21` (mixture of isomers) [Example 293, (3RS)-3-{6-[4-(4-{[4-({6-[4-(cyclopropylamino)-3-(propan-2-yl)-3H-imidazo[4,5-c]pyridin-6-yl]-2-oxo-1-[(1S,3S)-3-(piperidin-1-yl)cyclobutyl]-1,2-dihydrospiro[indole-3,4′-piperidin]-1′-yl}carbonyl)phenyl]methyl}piperazine-1-carbonyl)piperidin-1-yl]pyridin-3-yl}piperidine-2,6-dione], the DC50 was 100 to 500 nM. For the same compound, under setting [1], the Dmax lay in the range of 70 to 85%.
In the same order, the values of `CC(C(=O)N1CCN(C(=O)C2CCN(c3ccc(C4CCC(=O)NC4=O)cn3)CC2)CC1)N1CCC2(CC1)C(=O)N([C@H]1C[C@@H](N3CCCCC3)C1)c1cc(-c3cc4ncn(C(C)C)c4c(NC4CC4)n3)ccc12` (stereo partly drawn) [Example 172, 3-(6-{4-[4-(2-{6-[4-(cyclopropylamino)-3-(propan-2-yl)-3H-imidazo[4,5-c]pyridin-6-yl]-2-oxo-1-[(1S,3S)-3-(piperidin-1-yl)cyclobutyl]-1,2-dihydrospiro[indole-3,4′-piperidin]-1′-yl}propanoyl)piperazine-1-carbonyl]piperidin-1-yl}pyridin-3-yl)piperidine-2,6-dione] are less than 100 nM and more than 85%.
